One assay concerns the target T1, Abl kinase (SEQ ID NO:1) (Homo sapiens, UniProt P00519).
T1 construct: purchased deCode Genetics
T1 sequence (P00519 with tags, fused parts or gaps): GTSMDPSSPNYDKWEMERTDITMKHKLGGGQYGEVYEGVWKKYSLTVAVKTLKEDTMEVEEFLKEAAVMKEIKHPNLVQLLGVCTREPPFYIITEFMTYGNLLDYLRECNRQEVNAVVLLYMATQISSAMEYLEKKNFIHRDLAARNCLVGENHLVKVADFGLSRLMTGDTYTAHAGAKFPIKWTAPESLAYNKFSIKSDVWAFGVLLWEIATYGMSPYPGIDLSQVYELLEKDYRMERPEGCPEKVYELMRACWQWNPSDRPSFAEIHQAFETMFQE
As to the kind of experiment: Abl kinase assay (pyruvate kinase/lactate dehydrogenase coupled, ADP production). Conditions: 2 h preincubation at 30° C., ATP 500 μM; read-out: Abl Enzyme Assay, biochemical IC50. As for the experimental part:
Abl Kinase (SEQ ID NO:1) Assay
Activity of Abl kinase (SEQ ID NO:1) was determined by following the production of ADP from the kinase reaction through coupling with the pyruvate kinase/lactate dehydrogenase system (e.g., Schindler, et al. Science (2000) 289, 1938-1942). In this assay, the oxidation of NADH (thus the decrease at A340nm) was continuously monitored spectrophometrically. The reaction mixture (100 μl) contained Abl kinase (1 nM. Abl from deCode Genetics), peptide substrate (EAIYAAPFAKKK. 0.2 mM), MgCl2 (10 mM), pyruvate kinase (4 units), lactate dehydrogenase (0.7 units), phosphoenol pyruvate (1 mM), and NADH (0.28 mM) in 90 mM Tris buffer containing 0.2% octyl-glucoside and 3.5% DMSO, pH 7.5. Test compounds were incubated with Abl (SEQ ID NO:1) and other reaction reagents at 30° C. for 2 h before ATP (500 μM) was added to start the reaction. The absorption at 340 nm was monitored continuously for 2 hours at 30° C. on Polarstar Optima plate reader (BMG). The reaction rate was calculated using the 1.0 to 2.0 h time frame. Percent inhibition was obtained by comparison of reaction rate with that of a control (i.e. with no test compound). IC50 values were calculated from a series of percent inhibition values determined at a range of inhibitor concentrations using software routines as implemented in the GraphPad Prism software package.

Assay [1] concerns the target T2, C-Met kinase (SEQ ID NO:10) (Homo sapiens, UniProt P08581).
T2 construct: purchased Invitrogen PV3143
In words: C-Met kinase assay (pyruvate kinase/lactate dehydrogenase coupled). Conditions: 0.5 h preincubation at 22° C., ATP 100 μM; read-out: c-Met Enzyme Assay, biochemical IC50. How it is done: C-Met Kinase (SEQ ID NO:10) Assay
Activity of C-Met kinase (SEQ ID NO:10) was determined by following the production of ADP from the kinase reaction through coupling with the pyruvate kinase/lactate dehydrogenase system (e.g., Schindler, et al. Science (2000) 289, 1938-1942). In this assay, the oxidation of NADH (thus the decrease at A340 nm) was continuously monitored spectrophometrically. The reaction mixture (100 μl) contained C-Met (c-Met residues; 956-1390, from Invitrogen, catalogue #PV3143, 6 nM), polyE4Y (1 mg/ml), MgCl2 (10 mM), pyruvate kinase (4 units), lactate dehydrogenase (0.7 units), phosphoenol pyruvate (1 mM), and NADH (0.28 mM) in 90 mM Tris buffer containing 0.25 mM DTT, 0.2% octyl-glucoside and 1% DMSO, pH 7.5. Test compounds were incubated with C-Met (SEQ ID NO:10) and other reaction reagents at 22° C. for 0.5 h before ATP (100 μM) was added to start the reaction. The absorption at 340 n=was monitored continuously for 2 hours at 30° C. on Polarstar Optima plate reader (BMG). The reaction rate was calculated using the 1.0 to 2.0 h time frame. Percent inhibition was obtained by comparison of reaction rate with that of a control (i.e. with no test compound). IC50 values were calculated from a series of percent inhibition values determined at a range of inhibitor concentrations using software routines as implemented in the GraphPad Prism software package.

In assay [2] the target is T3, c-Kit kinase (SEQ ID NO:9) (Homo sapiens, UniProt P10721).
T3 construct: purchased ProQinase
T3 sequence (P10721 with tags, fused parts or gaps): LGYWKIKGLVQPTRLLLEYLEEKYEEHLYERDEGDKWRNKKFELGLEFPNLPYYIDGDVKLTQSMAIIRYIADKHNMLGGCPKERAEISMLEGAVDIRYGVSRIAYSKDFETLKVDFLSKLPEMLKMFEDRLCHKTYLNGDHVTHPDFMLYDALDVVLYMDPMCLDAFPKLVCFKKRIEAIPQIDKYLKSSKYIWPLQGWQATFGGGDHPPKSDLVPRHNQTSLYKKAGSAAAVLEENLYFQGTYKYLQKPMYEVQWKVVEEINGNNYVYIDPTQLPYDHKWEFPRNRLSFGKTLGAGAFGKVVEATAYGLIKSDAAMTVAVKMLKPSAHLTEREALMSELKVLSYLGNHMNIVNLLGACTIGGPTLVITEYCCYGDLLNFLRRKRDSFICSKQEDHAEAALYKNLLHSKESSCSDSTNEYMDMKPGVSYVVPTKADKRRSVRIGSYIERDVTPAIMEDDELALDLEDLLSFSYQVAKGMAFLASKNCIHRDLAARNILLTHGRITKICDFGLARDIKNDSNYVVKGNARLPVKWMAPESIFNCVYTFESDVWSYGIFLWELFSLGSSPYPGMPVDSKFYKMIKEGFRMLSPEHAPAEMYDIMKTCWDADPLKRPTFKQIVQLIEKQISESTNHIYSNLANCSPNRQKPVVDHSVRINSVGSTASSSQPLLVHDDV
In words: c-Kit kinase assay (pyruvate kinase/lactate dehydrogenase coupled). The settings on record: <2 min preincubation at 22° C., ATP 200 μM; read-out: c-Kit Enzyme Assay, biochemical IC50. How it is done:
C-Kit Kinase (SEQ ID NO:9) Assay
Activity of c-Kit kinase (SEQ ID NO:9) was determined by following the production of ADP from the kinase reaction through coupling with the pyruvate kinase/lactate dehydrogenase system (e.g., Schindler, et al. Science (2000) 289, 1938-1942). In this assay, the oxidation of NADH (thus the decrease at A340 nm) was continuously monitored spectrophometrically. The reaction mixture ([…]) contained c-Kit (cKIT residues T544-V976, from ProQinase, 5.4 nM), polyE4Y (1 mg/ml), MgCl2 (10 mM), pyruvate kinase (4 units), lactate dehydrogenase (0.7 units), phosphoenol pyruvate (1 mM), and NADH (0.28 mM) in 90 mM Tris buffer containing 0.2% octyl-glucoside and 1% DMSO, pH 7.5. Test compounds were incubated with […] (SEQ ID NO:9) and other reaction reagents at 22° C. for <2 min before ATP (200 μM) was added to start the reaction. The absorption at 340 nm was monitored continuously for 0.5 hours at 30° C. on Polarstar Optima plate reader (BMG). The reaction rate was calculated using the 0 to 0.5 h time frame. Percent inhibition was obtained by comparison of reaction rate with that of a control (i.e. with no test compound). IC50 values were calculated from a series of percent inhibition values determined at a range of inhibitor concentrations using software routines as implemented in the GraphPad Prism software package.

Counter-ions that a name gives are not always drawn.

T2 sequence (P08581 with tags, fused parts or gaps): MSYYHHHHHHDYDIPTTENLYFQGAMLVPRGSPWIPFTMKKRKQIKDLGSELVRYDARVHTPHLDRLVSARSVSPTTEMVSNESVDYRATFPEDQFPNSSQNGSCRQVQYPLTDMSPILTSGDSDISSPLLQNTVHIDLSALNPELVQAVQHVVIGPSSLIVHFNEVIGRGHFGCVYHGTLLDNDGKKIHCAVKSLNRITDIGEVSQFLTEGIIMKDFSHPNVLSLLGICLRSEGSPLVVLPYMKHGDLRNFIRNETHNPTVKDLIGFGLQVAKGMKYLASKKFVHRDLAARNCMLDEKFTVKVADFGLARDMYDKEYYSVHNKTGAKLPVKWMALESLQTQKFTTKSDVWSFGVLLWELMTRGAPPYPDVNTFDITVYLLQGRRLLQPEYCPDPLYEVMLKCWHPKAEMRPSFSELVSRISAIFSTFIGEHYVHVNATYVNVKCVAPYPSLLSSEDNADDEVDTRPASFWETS

As to `Cc1ccc(-n2nc(C(C)C)cc2NC(=O)Nc2ccc(Oc3ccnc(-c4cnn(C)c4)c3)cc2F)cc1C#N` [Example 11, 1-(1-(3-cyano-4-methylphenyl)-3-isopropyl-1H-pyrazol-5-yl)-3-(2-fluoro-4-(2-(1-methyl-1H-pyrazol-4-yl)pyridin-4-yloxy)phenyl)urea], the IC50 (at Abl kinase (SEQ ID NO:1); in assay [1]) was < 100 nM each time.
In the case of `Cn1cc(-c2cc(Oc3ccc(NC(=O)Nc4cc(C(C)(C)C)nn4-c4cccc(C#N)c4)c(F)c3)ccn2)cn1` [Example 4, 1-(3-tert-butyl-1-(3-cyanophenyl)-1H-pyrazol-5-yl)-3-(2-fluoro-4-(2-(1-methyl-1H-pyrazol-4-yl)pyridin-4-yloxy)phenyl)urea hydrochloride], the IC50 (at Abl kinase (SEQ ID NO:1); in assay [1]) was < 100 nM throughout.
As for `CC(C)c1cc(NC(=O)Nc2ccc(Oc3ccnc(-c4cnn(C)c4)c3)cc2F)n(-c2ccc(F)c(C#N)c2)n1` [Example 5, 1-(1-(3-cyano-4-fluorophenyl)-3-isopropyl-1H-pyrazol-5-yl)-3-(2-fluoro-4-(2-(1-methyl-1H-pyrazol-4-yl)pyridin-4-yloxy)phenyl)urea], the IC50 was < 100 nM at Abl kinase (SEQ ID NO:1), < 1000 nM in assay [1] and < 100 nM in assay [2].
As to `CC(C)c1cc(NC(=O)Nc2ccc(Oc3ccnc(-c4cnn(C)c4)c3)c(F)c2F)n(-c2cccc(C#N)c2)n1` [Example 13, 1-(1-(3-cyanophenyl)-3-isopropyl-1H-pyrazol-5-yl)-3-(2,3-difluoro-4-(2-(1-methyl-1H-pyrazol-4-yl)pyridin-4-yloxy)phenyl)urea], the IC50 (at Abl kinase (SEQ ID NO:1); in assay [1]; in assay [2]) was < 100 nM each time.
`Cc1c(Oc2ccnc(-c3cnn(C)c3)c2)ccc(NC(=O)Nc2cc(C(C)C)nn2-c2cccc(C#N)c2)c1F` [Example 12, 1-(1-(3-cyanophenyl)-3-isopropyl-1H-pyrazol-5-yl)-3-(2-fluoro-3-methyl-4-(2-(1-methyl-1H-pyrazol-4-yl)pyridin-4-yloxy)phenyl)urea]: the IC50 (on Abl kinase (SEQ ID NO:1); in assay [1]; in assay [2]) was < 100 nM in each case.
Consider `CCc1cc(NC(=O)Nc2ccc(Oc3ccnc(-c4cnn(C(C)C)c4)c3)cc2F)n(-c2cccc(C#N)c2)n1` [Example 17, 1-(1-(3-cyanophenyl)-3-ethyl-1H-pyrazol-5-yl)-3-(2-fluoro-4-(2-(1-isopropyl-1H-pyrazol-4-yl)pyridin-4-yloxy)phenyl)urea], for which the IC50 on Abl kinase (SEQ ID NO:1) is < 100 nM; in assay [1], < 1000 nM; in assay [2] it was < 100 nM.
In the case of `Cn1cc(-c2cc(Oc3ccc(NC(=O)Nc4cc(C(C)(C)C)nn4-c4ccc(CO)cc4)c(F)c3)ccn2)cn1` [Example 8, 1-(3-tert-butyl-1-(4-(hydroxymethyl)phenyl)-1H-pyrazol-5-yl)-3-(2-fluoro-4-(2-(1-methyl-1H-pyrazol-4-yl)pyridin-4-yloxy)phenyl)urea], the 50% inhibitory concentration (IC50) (at Abl kinase (SEQ ID NO:1); in assay [1]) was < 100 nM each time.
Turning to “1-(2-tert-butyl-4-(pyridin-3-yl)pyrimidin-5-yl)-3-(2-fluoro-5-(8-methyl-2-(methylamino)-7-oxo-7,8-dihydropyrido[2,3-d]pyrimidin-6-yl)phenyl)urea [Example 10]”, the figures for the IC50 (on Abl kinase (SEQ ID NO:1); in assay [1]) were < 100 nM and < 10000 nM, respectively.
In the case of `CC(C)c1cc(NC(=O)Nc2ccc(Oc3ccnc(-c4cnn(C)c4)c3)cc2F)n(-c2cccc(F)c2)n1` [Example 24, 1-(2-fluoro-4-(2-(1-methyl-1H-pyrazol-4-yl)pyridin-4-yloxy)phenyl)-3-(1-(3-fluorophenyl)-3-isopropyl-1H-pyrazol-5-yl)urea], the IC50 (at Abl kinase (SEQ ID NO:1); in assay [1]) was < 100 nM throughout.
On to `CC(C)c1cc(NC(=O)Nc2ccc(Oc3ccnc(-c4cnn(C)c4)c3)c(F)c2)n(-c2cccc(C#N)c2)n1` [Example 16, 1-(1-(3-cyanophenyl)-3-isopropyl-1H-pyrazol-5-yl)-3-(3-fluoro-4-(2-(1-methyl-1H-pyrazol-4-yl)pyridin-4-yloxy)phenyl)urea], for which the IC50 (on Abl kinase (SEQ ID NO:1); in assay [1]) was < 100 nM throughout.
On to `Cn1cc(-c2cc(Oc3ccc(NC(=O)Nc4cc(C(C)(C)C)nn4-c4cccc(CO)c4)c(F)c3)ccn2)cn1` [Example 7, 1-(3-tert-butyl-1-(3-(hydroxymethyl)phenyl)-1H-pyrazol-5-yl)-3-(2-fluoro-4-(2-(1-methyl-1H-pyrazol-4-yl)pyridin-4-yloxy)phenyl)urea p-toluenesulfonic acid], for which the IC50 (at Abl kinase (SEQ ID NO:1); in assay [1]) was < 100 nM in each case.
As to `Cn1cc(-c2cc(Oc3ccc(NC(=O)Nc4cc(-c5ccccc5F)nn4C)c(F)c3F)ccn2)cn1` [Example 25, 1-(2,3-difluoro-4-(2-(1-methyl-1H-pyrazol-4-yl)pyridin-4-yloxy)phenyl)-3-(3-(2-fluorophenyl)-1-methyl-1H-pyrazol-5-yl)urea], the results for the IC50 (on Abl kinase (SEQ ID NO:1); in assay [1]) were < 100 nM and < 1000 nM, respectively.
Take `CC(C)(C)c1cc(NC(=O)Nc2ccc(Oc3ccnc(-c4cn[nH]c4)c3)cc2F)n(-c2cccc(C#N)c2)n1` [Example 3, 1-(4-(2-(1H-pyrazol-4-yl)pyridin-4-yloxy)-2-fluorophenyl)-3-(3-tert-butyl-1-(3-cyanophenyl-1H-pyrazol-5-yl)urea hydrochloride]: the IC50 (at Abl kinase (SEQ ID NO:1); in assay [1]) was < 100 nM in each case.
Turning to `Cn1cc(-c2cc(Oc3ccc(NC(=O)Nc4cc(C(C)(C)C)nn4-c4ccc(C#N)cc4)c(F)c3)ccn2)cn1` [Example 6, 1-(3-tert-butyl-1-(4-cyanophenyl)-1H-pyrazol-5-yl)-3-(2-fluoro-4-(2-(1-methyl-1H-pyrazol-4-yl)pyridin-4-yloxy)phenyl)urea], the IC50 (on Abl kinase (SEQ ID NO:1); in assay [1]) was < 100 nM each time.
Turning to `Cc1ncc(NC(=O)Nc2ccc(Oc3ccnc(-c4cnn(C)c4)c3)cc2F)c(-c2ccccc2)n1` [Example 14, 1-(2-fluoro-4-(2-(1-methyl-1H-pyrazol-4-yl)pyridin-4-yloxy)phenyl)-3-(2-methyl-4-phenylpyrimidin-5-yl)urea], the IC50 on Abl kinase (SEQ ID NO:1) was < 100 nM; in assay [1], < 10000 nM.

The term IC50 denotes the concentration at which inhibition is half-maximal.

Values taken from US20080269267A1, “KINASE INHIBITORS USEFUL FOR THE TREATMENT OF MYLEOPROLIFIC DISEASES AND OTHER PROLIFERATIVE DISEASES” (Deciphera Pharmaceuticals, LLC, priority 2007, published 2008).
